ChEMBL document CHEMBL1649573, “Protein kinase G is required for intrinsic antibiotic resistance in mycobacteria” (2009)
≈ marks a conversion by molar mass, not a printed value.

Test system: Mycolicibacterium smegmatis
Experiment: Antimycobacterial activity against PknGMsm-deficient Mycobacterium smegmatis harboring PknG Mtb gene by Etest method
Type: functional

First: CC[C@H]1OC(=O)[C@H](C)[C@@H](O[C@H]2C[C@@](C)(OC)[C@@H](O)[C@H](C)O2)[C@H](C)[C@@H](O[C@@H]2O[C@H](C)C[C@H](N(C)C)[C@H]2O)[C@](C)(O)C[C@@H](C)C(=O)[C@H](C)[C@@H](O)[C@]1(C)O [ERYTHROMYCIN]
Second: CO[C@H]1/C=C/O[C@@]2(C)Oc3c(C)c(O)c4c(O)c(c(/C=N/N5CCN(C)CC5)c(O)c4c3C2=O)NC(=O)/C(C)=C\C=C\[C@H](C)[C@H](O)[C@@H](C)[C@@H](O)[C@@H](C)[C@H](OC(C)=O)[C@@H]1C [RIFAMPIN]
The MIC of the first is lower: 32 µg/mL (≈ 43.6 µM) for the first, over 32 µg/mL for the second.

Compared with `CC[C@@H](CO)NCCN[C@@H](CC)CO` [ETHAMBUTOL], `C[C@@H](O)[C@H]1C(=O)N2C(C(=O)O)=C(SCCNC=N)C[C@H]12` [IMIPENEM ANHYDROUS] is 24-fold higher in MIC: 0.25 µg/mL (≈ 1.22 µM) for the first, 6 µg/mL (≈ 20 µM) for the second.

`CN[C@H](CC(C)C)C(=O)N[C@H]1C(=O)N[C@@H](CC(N)=O)C(=O)N[C@H]2C(=O)N[C@H]3C(=O)N[C@H](C(=O)N[C@H](C(=O)O)c4cc(O)cc(O)c4-c4cc3ccc4O)[C@H](O)c3ccc(c(Cl)c3)Oc3cc2cc(c3O[C@@H]2O[C@H](CO)[C@@H](O)[C@H](O)[C@H]2O[C@H]2C[C@](C)(N)[C@H](O)[C@H](C)O2)Oc2ccc(cc2Cl)[C@H]1O` [VANCOMYCIN] showed an MIC of 48 µg/mL (≈ 33.1 µM).
